Results reported in ChEMBL document CHEMBL5308541, “MAIP: An Open-Source Tool to Enrich High-Throughput Screening Output and Identify Novel, Druglike Molecules with Antimalarial Activity” (ACS Med Chem Lett, 2023).

What was measured:
Plasmodium falciparum [1] = experiment: Hit confirmation in dose-response curve in NF54 nanoGlo assay, at 72h; format: functional, organism-based, Erythrocyte; parameters: timepoint 72 hour; details: Plasmodium falciparum, NF54, Erythrocyte, 72 h
Plasmodium falciparum [2] = experiment: Hit confirmation in dose-response curve in NF54 pLDH assay, at 72h; format: functional, organism-based, Erythrocyte; parameters: timepoint 72 hour; details: Plasmodium falciparum, NF54, Erythrocyte, 72 h
Plasmodium falciparum [3] = experiment: Hit confirmation in dose-response curve in Dd2 pLDH assay, at 72h; format: functional, organism-based, Erythrocyte; parameters: timepoint 72 hour; details: Plasmodium falciparum, Dd2, Erythrocyte, 72 h
Plasmodium falciparum [4] = experiment: Hit confirmation in dose-response curve in NF54 nanoGlo assay, at 12h; format: functional, organism-based, Erythrocyte; parameters: timepoint 12 hour; details: Plasmodium falciparum, NF54, Erythrocyte, 12 h
[5] = Hit confirmation in dose-response curve in HepG2 cytotoxicity assay, at 72h; format: toxicity, cell-based, Homo sapiens; parameters: timepoint 72 hour; details: human, HepG2 cells

Row | SMILES | IC50 (Plasmodium falciparum [1]) [µM] | IC50 (Plasmodium falciparum [2]) [µM] | IC50 (Plasmodium falciparum [3]) [µM] | IC50 (Plasmodium falciparum [4]) [µM] | IC50 at 72 h [5] [µM]
1 | Cc1ccc2[nH]c(CNC[C@@H](CO)C3CCC3)cc2c1C | 2.45 | 4.57 | 3.63 | 4.47 | > 10
2 | CN1C(C)(C)CC(NC(=O)c2ccc(-c3cc(-c4cccc(C(F)(F)F)c4)n[nH]3)cc2)CC1(C)C | 3.63 | 9.33 | 7.94 | 8.51 | > 10
3 | FC(F)(F)c1ccc(N2CCC[C@H](NC3CCN(Cc4ccco4)CC3)C2)nc1 | 7.59 | 7.59 | 8.13 | > 10 | > 10
4 | CCOc1ccc2nc(CN(CC)CC3CCN(C4CCN(C)CC4)CC3)ccc2c1 | 1.95 | 2.45 | 2 | 3.55 | > 10
5 | Cc1ccc2nc(CCCNC3CCN(c4cc(C)nc(N)n4)CC3)oc2c1 | 3.89 | 3.31 | 3.47 | 8.91 | > 10
6 | O[C@H]1CCN(Cc2ccccc2CNc2cccc(-n3ccnc3)n2)C1 | 1.41 | 2.24 | 2.19 | 3.63 | > 10
7 | COCCN1CCC[C@@]2(CCN(c3ccnc4cc(Cl)ccc34)C2)C1 | 0.162 | 0.166 | 0.135 | 0.234 | > 10
8 | c1ccc(CN2CCC(CCNC[C@@H]3CCCN4CCCC[C@H]34)CC2)cc1 | 2.34 | 2.57 | 1.78 | 7.24 | > 10
9 | CCn1cc(-c2cccc(C(=O)N[C@@H](C)CN3CCc4ccccc4C3)c2)cn1 | 8.32 | 9.12 | 9.77 | > 10 | > 10
10 | Cc1cc(N2CCC(NC3CCNC(c4ccccc4)C3)CC2)nc(C)n1 (stereo not given) | 4.37 | 9.12 | 6.17 | 10.2 | > 10
11 | CC(C)(C)n1ncc2c(NCc3ccc4cccnc4c3O)ncnc21 | 3.89 | 6.46 | 5.5 | 10 | 6.31
12 | CNc1nc(N[C@H]2CCCN(Cc3ccc(Cl)cc3)C2)nc2c1CCC2 | 2.45 | 2.63 | 2.29 | > 10 | > 10
13 | CCNc1nc(C)cc(Nc2ccc(NC(=O)Nc3ccc(F)cc3F)cc2)n1 | 0.263 | 0.389 | 0.269 | 0.562 | 2.63
14 | CC(C)CCOc1ccc2[nH]c(-c3cc(N4CCC[C@@H]4CS(C)(=O)=O)ccn3)cc2c1 | 0.661 | 1.12 | 0.891 | 1.86 | > 10
15 | Clc1cccc(N2CC[C@H](CNC3CCN(Cc4ccco4)CC3)C2)c1 | 3.47 | 3.72 | 3.16 | 5.25 | > 10
16 | CCN1CCN(c2ccc(CNCc3cccc(O)c3)cc2F)CC1 | 1.95 | 3.39 | 3.89 | 8.91 | > 10
17 | FC(F)(F)c1ccc(-c2c(-c3ccccc3)ncn2Cc2ncn[nH]2)cc1 | 6.92 | > 10 | > 10 | 2.75 | > 10
18 | C[C@H]1CCCN(CCNC(=O)c2ccc(-c3ccc4c(=O)[nH]ccc4c3)cc2)C1 | 1.48 | 0.398 | 0.575 | > 10 | > 10
19 | Nc1ccnc2ccc(-c3ccc(C(=O)NCC4CCOCC4)cc3)cc12 | 1.23 | 3.31 | 2.69 | > 10 | > 10

Row | SMILES | IC50 (Plasmodium falciparum [1]) [µM] | IC50 (Plasmodium falciparum [2]) [µM] | IC50 (Plasmodium falciparum [3]) [µM] | IC50 (Plasmodium falciparum [4]) [µM] | IC50 at 72 h [5] [µM]
20 | NC(=O)[C@]1(O)CCN(c2ccnc3ccc(Oc4ccccc4)cc23)C1 | 3.31 | 3.8 | 3.24 | 7.76 | > 10
21 | Cn1cncc1[C@@H]1CNC[C@H]1CNC(=O)c1ccccc1NC1CCCCC1 | 3.89 | 6.76 | 4.17 | 8.13 | > 10
22 | COc1ccc(-c2cc(-c3ccccc3O)n([C@@H]3C(=O)Nc4ccc(Br)cc43)n2)cc1 | 4.07 | 8.71 | 8.71 | 4.9 | > 10
23 | Cc1cnccc1NCCNCc1cccc(OCCCCN2CCOCC2)c1 | 1.45 | 1.38 | 1.2 | 2.75 | > 10
24 | Cn1nnc(C(=O)N2CCCCC23CCCCCC3)n1 | 2.24 | 5.5 | 2.29 | > 10 | > 10
25 | CN(C)CC12CNCC1CN(c1ccnc3cc(Cl)ccc13)C2 (stereo not given) | 0.0417 | 0.0309 | 0.043 | 0.0513 | > 10
26 | Cn1cc(-c2cncc(C(=O)NC3CCN(c4cccc(F)c4)CC3)c2)cn1 | 3.24 | > 10 | > 10 | 1.41 | > 10
27 | Oc1ccc(C2=CCN(Cc3cccc4[nH]ccc34)CC2)cc1 | 7.24 | 10 | 5.75 | > 10 | > 10
28 | CN1CCC(N(Cc2ccccc2)C(=O)c2cc3cnccc3[nH]2)CC1 | 2.51 | 2.95 | 2.82 | 5.37 | > 10
29 | O=C(NCC1CC1)c1cc2c(OCc3ccc(Cl)cc3)cccc2[nH]1 | 3.89 | 10.2 | 6.46 | > 10 | > 10
30 | Cc1noc(-c2ccnc(NC[C@@H](c3ccccn3)N3CCOCC3)c2)n1 | 1.58 | 3.98 | 3.02 | > 10 | > 10
31 | COc1ccc2cc(NC(=O)c3cc(-c4c(C)nn(C)c4C)[nH]n3)cnc2c1 | 2.51 | 7.24 | 7.08 | 4.9 | > 10
32 | Cc1cccc(Nc2ccnc(Nc3ccc(N4CCN(C)CC4)cc3)n2)c1 | 1.15 | 1.29 | 1.23 | > 10 | > 10
33 | Cc1ccc2[nH]c(-c3cc4n(n3)CCN(c3ccnc(N)n3)C4)nc2c1C | 1.78 | 2.63 | 2.63 | 3.63 | > 10
34 | c1ccc(CCC23CN(Cc4ccccn4)CC2CN(Cc2ccns2)C3)cc1 (stereo not given) | 1.45 | 3.55 | 4.17 | 6.46 | > 10
35 | CCN(Cc1cnn(-c2cccc(Cl)c2)c1)CC1CCN(C2CCN(C)CC2)CC1 | 1.55 | 1.35 | 1.23 | 2.69 | > 10
36 | CN1CCC(N(C)C[C@H](Nc2ncnc3ccccc23)c2ccccc2)CC1 | 0.977 | 1.7 | 1.23 | 1.62 | > 10
37 | CCCC(=O)NC1COCC1Cc1ccncc1 (stereo not given) | 6.31 | > 10 | > 10 | 8.91 | > 10
38 | COCCNc1nc(N[C@@H](C)c2ccccc2)c2ccccc2n1 | 3.02 | 5.37 | 2.75 | 8.71 | > 10
